Test results published in paper PMC3813431 (Aquatic toxicology (Amsterdam, Netherlands), 2013).
Entries after “also recorded” stand apart in the source; their conditions may differ. Read-outs that look alike come from different tables or passages of the source. Marks after values point to notes of the source that are not given here.

How the values were obtained:
RyR1 [1] = conditions: estimated from QSAR; ref Rayne and Forest 2010; cited from earlier work
[2] = target: ryanodine receptor, isoform 1 (RyR1) (Oncorhynchus mykiss, UniProt A0A8C7UX14); format: binding, rainbow trout (Oncorhynchus mykiss); conditions: for Comparison (Ratio): Fish RPF compared to Mammal RPF; for Log-Probit Slope / Bmax / Bmax (pmol/mg): Mean ± SEM; for Bmax / Bmax (pmol/mg): maximal level of [3H]Ry binding at saturation; for Fish RPF: relative potency factor, Q20 relative to PCB 95; for activity toward RyR1: rainbow trout preparation
RyR1 [3] = assay: Mammalian RyR1 [3H]ryanodine binding; set-up: species or system rabbit; conditions: relative potency factor, EC2X relative to PCB 95; from literature EC2X values
RyR1 [4] = conditions: ref Pessah et al. 2006; cited from earlier work
[5] = linear regression of log-probit plot, (−) inactive
[6] = sigmoidal fit of enhanced [3H]Ry binding, PCB 0–20 μM, (−) inactive

Sequence of ryanodine receptor, isoform 1 (RyR1) (A0A8C7UX14 1-5031): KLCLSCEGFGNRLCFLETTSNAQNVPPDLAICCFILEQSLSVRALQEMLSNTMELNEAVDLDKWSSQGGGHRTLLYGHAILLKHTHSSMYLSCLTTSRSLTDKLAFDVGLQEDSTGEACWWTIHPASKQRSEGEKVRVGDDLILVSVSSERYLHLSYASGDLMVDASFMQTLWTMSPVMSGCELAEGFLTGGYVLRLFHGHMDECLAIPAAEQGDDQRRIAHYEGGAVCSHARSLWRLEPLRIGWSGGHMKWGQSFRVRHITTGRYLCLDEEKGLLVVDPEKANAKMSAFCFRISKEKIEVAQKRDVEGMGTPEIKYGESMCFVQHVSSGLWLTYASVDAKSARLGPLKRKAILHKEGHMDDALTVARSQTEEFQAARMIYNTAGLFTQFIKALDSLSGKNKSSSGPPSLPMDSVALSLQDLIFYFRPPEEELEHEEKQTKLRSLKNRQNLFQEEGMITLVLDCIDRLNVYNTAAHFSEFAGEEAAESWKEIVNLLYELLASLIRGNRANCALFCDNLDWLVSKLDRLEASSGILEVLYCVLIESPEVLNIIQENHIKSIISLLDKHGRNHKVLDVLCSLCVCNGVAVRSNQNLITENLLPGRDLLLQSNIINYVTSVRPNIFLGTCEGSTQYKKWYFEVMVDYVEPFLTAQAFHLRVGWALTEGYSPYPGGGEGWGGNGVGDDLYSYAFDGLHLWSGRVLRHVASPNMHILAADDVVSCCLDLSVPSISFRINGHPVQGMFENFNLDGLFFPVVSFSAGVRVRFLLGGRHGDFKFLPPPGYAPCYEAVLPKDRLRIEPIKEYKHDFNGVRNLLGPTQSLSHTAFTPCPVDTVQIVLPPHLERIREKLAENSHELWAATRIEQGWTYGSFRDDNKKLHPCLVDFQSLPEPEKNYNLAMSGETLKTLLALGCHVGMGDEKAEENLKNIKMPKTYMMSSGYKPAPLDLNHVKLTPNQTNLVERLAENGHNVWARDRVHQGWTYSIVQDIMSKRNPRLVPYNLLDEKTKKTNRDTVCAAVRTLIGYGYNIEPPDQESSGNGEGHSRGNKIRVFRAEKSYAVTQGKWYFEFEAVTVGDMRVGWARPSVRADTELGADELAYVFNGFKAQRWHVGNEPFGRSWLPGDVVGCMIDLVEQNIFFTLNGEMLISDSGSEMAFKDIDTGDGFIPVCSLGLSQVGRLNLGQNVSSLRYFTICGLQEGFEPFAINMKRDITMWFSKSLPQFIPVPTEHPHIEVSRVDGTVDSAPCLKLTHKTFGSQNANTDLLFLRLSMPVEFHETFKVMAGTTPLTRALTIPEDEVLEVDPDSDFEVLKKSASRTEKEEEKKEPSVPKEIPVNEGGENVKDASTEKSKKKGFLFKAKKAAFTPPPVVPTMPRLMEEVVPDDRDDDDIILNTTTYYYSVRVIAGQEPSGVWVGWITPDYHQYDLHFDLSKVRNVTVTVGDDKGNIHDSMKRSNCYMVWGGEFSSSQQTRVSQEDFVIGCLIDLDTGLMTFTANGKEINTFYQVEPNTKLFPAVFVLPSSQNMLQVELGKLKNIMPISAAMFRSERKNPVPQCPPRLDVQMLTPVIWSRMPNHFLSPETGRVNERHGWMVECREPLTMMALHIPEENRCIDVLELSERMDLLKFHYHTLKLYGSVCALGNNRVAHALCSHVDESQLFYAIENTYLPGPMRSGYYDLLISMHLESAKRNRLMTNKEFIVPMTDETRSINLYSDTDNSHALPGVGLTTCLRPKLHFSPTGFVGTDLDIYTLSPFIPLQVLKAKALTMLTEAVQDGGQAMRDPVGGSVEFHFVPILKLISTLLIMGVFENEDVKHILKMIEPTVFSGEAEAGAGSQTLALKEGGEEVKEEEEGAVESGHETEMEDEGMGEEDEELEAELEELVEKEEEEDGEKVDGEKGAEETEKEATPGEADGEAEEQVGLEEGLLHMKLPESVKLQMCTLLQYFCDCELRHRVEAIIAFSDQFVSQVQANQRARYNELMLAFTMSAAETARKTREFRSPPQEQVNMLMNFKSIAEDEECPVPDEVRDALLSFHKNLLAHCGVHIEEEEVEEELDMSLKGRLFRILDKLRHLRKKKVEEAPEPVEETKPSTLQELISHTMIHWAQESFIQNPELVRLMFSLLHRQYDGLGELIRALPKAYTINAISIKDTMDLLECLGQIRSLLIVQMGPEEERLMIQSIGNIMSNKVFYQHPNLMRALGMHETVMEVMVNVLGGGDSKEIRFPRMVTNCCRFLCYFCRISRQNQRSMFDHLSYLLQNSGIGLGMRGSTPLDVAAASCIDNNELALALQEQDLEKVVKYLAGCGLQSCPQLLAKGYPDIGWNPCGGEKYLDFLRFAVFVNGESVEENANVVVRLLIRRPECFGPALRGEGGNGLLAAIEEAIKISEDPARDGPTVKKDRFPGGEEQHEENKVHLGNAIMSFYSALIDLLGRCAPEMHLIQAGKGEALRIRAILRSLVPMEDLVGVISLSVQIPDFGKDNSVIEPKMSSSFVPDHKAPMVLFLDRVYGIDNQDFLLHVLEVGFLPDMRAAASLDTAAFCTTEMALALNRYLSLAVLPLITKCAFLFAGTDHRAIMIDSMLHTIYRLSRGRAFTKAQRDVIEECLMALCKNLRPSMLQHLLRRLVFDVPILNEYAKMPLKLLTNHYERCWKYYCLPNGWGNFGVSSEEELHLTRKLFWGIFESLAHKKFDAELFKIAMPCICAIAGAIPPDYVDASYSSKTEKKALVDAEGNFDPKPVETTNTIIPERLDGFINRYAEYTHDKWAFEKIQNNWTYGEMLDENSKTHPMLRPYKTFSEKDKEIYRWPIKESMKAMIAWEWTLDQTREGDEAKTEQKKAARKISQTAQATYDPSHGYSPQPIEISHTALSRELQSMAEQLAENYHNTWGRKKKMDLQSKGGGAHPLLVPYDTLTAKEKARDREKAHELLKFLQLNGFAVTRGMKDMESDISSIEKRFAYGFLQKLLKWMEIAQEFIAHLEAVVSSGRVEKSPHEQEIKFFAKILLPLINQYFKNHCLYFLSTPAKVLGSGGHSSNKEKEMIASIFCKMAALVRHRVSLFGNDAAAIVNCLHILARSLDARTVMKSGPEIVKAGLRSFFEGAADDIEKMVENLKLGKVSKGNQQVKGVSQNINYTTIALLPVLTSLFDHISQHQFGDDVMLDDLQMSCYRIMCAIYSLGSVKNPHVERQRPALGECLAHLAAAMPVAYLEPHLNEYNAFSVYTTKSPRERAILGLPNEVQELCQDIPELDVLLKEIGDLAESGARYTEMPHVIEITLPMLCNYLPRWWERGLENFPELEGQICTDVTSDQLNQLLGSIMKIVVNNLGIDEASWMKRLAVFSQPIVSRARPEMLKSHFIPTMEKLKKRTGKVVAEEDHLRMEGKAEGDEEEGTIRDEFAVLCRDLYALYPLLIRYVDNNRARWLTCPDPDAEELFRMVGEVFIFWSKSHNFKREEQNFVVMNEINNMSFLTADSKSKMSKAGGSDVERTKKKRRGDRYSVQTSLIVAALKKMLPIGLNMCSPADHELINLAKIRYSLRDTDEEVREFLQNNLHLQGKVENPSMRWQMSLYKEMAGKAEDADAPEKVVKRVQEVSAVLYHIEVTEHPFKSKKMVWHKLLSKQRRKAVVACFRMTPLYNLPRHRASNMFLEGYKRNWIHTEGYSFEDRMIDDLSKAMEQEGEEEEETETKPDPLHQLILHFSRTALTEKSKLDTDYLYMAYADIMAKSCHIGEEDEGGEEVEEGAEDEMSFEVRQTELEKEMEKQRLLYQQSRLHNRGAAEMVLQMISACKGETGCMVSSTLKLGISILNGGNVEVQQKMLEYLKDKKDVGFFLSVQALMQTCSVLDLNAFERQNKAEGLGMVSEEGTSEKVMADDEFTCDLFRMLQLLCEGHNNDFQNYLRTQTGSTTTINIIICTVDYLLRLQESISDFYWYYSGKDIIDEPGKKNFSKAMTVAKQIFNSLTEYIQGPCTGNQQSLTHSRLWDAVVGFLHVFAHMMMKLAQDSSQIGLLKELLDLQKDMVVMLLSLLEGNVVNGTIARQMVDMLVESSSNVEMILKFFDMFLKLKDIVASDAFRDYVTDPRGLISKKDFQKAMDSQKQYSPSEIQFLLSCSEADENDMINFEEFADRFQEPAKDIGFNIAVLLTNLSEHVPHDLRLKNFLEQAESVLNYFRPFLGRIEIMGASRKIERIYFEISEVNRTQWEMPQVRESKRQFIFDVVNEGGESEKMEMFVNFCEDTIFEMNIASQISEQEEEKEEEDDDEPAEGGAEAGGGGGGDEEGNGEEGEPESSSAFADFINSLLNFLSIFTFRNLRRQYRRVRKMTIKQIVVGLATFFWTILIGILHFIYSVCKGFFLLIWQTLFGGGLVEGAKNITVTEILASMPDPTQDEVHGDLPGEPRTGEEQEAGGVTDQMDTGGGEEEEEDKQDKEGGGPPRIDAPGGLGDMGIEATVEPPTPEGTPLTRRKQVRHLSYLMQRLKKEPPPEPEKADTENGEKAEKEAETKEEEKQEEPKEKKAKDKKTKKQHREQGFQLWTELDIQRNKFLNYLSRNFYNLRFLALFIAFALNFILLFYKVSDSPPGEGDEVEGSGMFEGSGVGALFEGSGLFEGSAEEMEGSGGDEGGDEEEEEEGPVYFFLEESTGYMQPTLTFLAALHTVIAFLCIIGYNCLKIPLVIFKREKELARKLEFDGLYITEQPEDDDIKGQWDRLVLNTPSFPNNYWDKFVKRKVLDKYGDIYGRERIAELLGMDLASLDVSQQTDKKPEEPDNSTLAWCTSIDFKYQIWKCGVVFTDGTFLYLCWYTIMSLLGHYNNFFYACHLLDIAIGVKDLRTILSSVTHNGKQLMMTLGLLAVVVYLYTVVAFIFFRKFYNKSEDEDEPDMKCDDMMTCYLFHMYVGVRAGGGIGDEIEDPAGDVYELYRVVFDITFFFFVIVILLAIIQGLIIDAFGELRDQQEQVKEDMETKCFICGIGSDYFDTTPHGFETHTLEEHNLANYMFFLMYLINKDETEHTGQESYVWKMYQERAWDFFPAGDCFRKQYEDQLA

Compound | Mammal EC2X (μM) (RyR1 [1]) | Comparison (Ratio) [2] | Log-Probit Slope [2, 5] | Bmax ([2]; (−) inactive) [pmol/mg] | Fish RPF ([2]; (−) inactive) | EC50 [2, 6] [nM] | Mammal RPF (RyR1 [3]) | Mammal EC2X (RyR1 [4]) [µM] | receptor activity, % of baseline ([2]; at 20 μM (data not shown)) | Log-Probit Slope ([2]; parameter determined using activating concentrations only) | Bmax (pmol/mg) ([2]; (−) inactive) | activity toward RyR1 [2] | activity toward the RyR1 in mammals (RyR1 [4]) | EC50 ([2]; single compound) [nM] | EC20 ([2]; read-out: Fish Normalized Q20 (μM)) [µM] | Emax ([2]; read-out: Maximum Response (% of Control)) [%]
Clc1cccc(-c2cccc(Cl)c2Cl)c1 [PCB 20] | 2 ^c μM | 0.05 | 2.83 ± 0.10 | 0.34 ± 0.02 | 0.01 | 1800 | 0.11 |  |  |  |  |  |  |  |  | 
Clc1ccc(-c2cc(Cl)c(Cl)cc2Cl)c(Cl)c1 [PCB 99] |  | 0.35 | 2.30 ± 0.05 | 0.61 ± 0.03 | 0.03 | 3590 | 0.08 | 2.80 |  |  |  |  |  |  |  | 
Clc1cc(Cl)c(-c2c(Cl)cc(Cl)c(Cl)c2Cl)cc1Cl [PCB 183] |  | 0.16 | 1.58 ± 0.09 | 0.42 ± 0.03 | 0.06 | 1820 | 0.40 | 0.55 |  |  |  |  |  |  |  | 
Clc1cc(Cl)c(-c2c(Cl)c(Cl)cc(Cl)c2Cl)cc1Cl [PCB 187] |  | 0.16 | 3.05 ± 0.07 | 0.45 ± 0.02 | 0.06 | 1300 | 0.38 | 0.58 |  |  |  |  |  |  |  | 
Clc1ccc(Cl)c(-c2cc(Cl)ccc2Cl)c1 [PCB 52] |  | 0.69 | 2.66 ± 0.09 | 0.77 ± 0.05 | 0.31 | 2940 | 0.45 | 0.49 |  |  |  |  |  |  |  | 
Clc1ccc(-c2c(Cl)ccc(Cl)c2Cl)c(Cl)c1Cl [PCB 132] |  | 0.10 |  | 0.46 ± 0.02 | 0.02 | 1320 | 0.24 | 0.91 | 88 % of baseline | 1.70 ± 0.04 ^a |  |  |  |  |  | 
Clc1cc(Cl)c(-c2c(Cl)ccc(Cl)c2Cl)cc1Cl [PCB 149] |  | 1.45 | 3.40 ± 0.08 | 0.76 ± 0.04 | 0.96 | 810 | 0.67 | 0.33 |  |  |  |  |  |  |  | 
Clc1ccc(-c2ccc(Cl)c(Cl)c2)cc1Cl [PCB 77] |  |  |  |  |  | > 20000 | 0.04 | 5.00 |  |  | - | negligible impact; also recorded: inactive |  |  |  | 
Clc1ccc(-c2c(Cl)ccc(Cl)c2Cl)cc1Cl [PCB 110] |  |  | 2.60 ± 0.01 | 0.48 ± 0.03 |  | 1080 | 0.19 | 1.13 |  |  |  |  |  |  |  | 
Clc1ccc(-c2cc(Cl)c(Cl)c(Cl)c2)cc1Cl [PCB 126] |  |  |  |  |  |  |  |  |  |  |  |  | inactive |  |  | 
Clc1cc(-c2cc(Cl)c(Cl)c(Cl)c2Cl)c(Cl)c(Cl)c1Cl [PCB 194] | 0.5 ^c μM | 0.09 | 8.94 ± 0.34 | 0.36 ± 0.02 | 0.04 | 1270 | 0.44 |  |  |  |  |  |  |  |  | 
Clc1ccc(-c2ccc(Cl)c(Cl)c2)c(Cl)c1 [PCB 66] |  | 0.44 | 2.93 ± 0.00 | 0.42 ± 0.02 | 0.04 | 1160 | 0.09 | 2.38 |  |  |  |  |  |  |  | 
Clc1cc(Cl)c(-c2cc(Cl)c(Cl)cc2Cl)cc1Cl [PCB 153] |  | 0.41 | 2.25 ± 0.05 | 0.54 ± 0.02 | 0.07 | 5750 | 0.18 | 1.21 |  |  |  |  |  |  |  | 
Brc1ccc(Oc2cc(Br)ccc2Br)c(Br)c1 [PBDE49] |  |  |  |  |  |  |  |  |  |  |  |  |  | 3480 |  | 
Clc1ccc(-c2ccc(Cl)cc2Cl)cc1 [PCB 28] | 5 ^c μM |  |  |  |  | > 20000 | 0.04 |  |  |  | - | inactive |  |  |  | 
Clc1ccc(Cl)c(-c2c(Cl)c(Cl)cc(Cl)c2Cl)c1 [PCB 151] |  | 0.45 | 1.91 ± 0.04 | 0.77 ± 0.04 | 0.20 | 2760 | 0.44 | 0.50 |  |  |  |  |  |  |  | 
Clc1cc(Cl)c(-c2cc(Cl)c(Cl)c(Cl)c2Cl)cc1Cl [PCB 180] |  | 0.17 | 1.84 ± 0.06 | 0.40 ± 0.03 |  |  | 0.23 | 0.96 |  |  |  |  |  |  | 11.2 | 132 ± 9.87
Clc1ccc(-c2cc(Cl)c(Cl)c(Cl)c2Cl)c(Cl)c1Cl [PCB 170] |  |  |  |  |  | > 20000 | 0.30 | 0.73 |  |  | - | inactive |  |  |  | 
Clc1ccc(Cl)c(-c2c(Cl)ccc(Cl)c2Cl)c1Cl [PCB 136] |  | 0.63 | 3.16 ± 0.14 | 0.96 ± 0.04 | 0.60 | 1300 | 0.96 | 0.23 |  |  |  |  |  |  |  | 
Clc1ccc(Cl)c(-c2c(Cl)ccc(Cl)c2Cl)c1 [PCB 95] |  | 1.00 | 2.15 ± 0.05 | 0.95 ± 0.04 | 1.00 | 1060 | 1.00 | 0.22 |  |  |  |  |  |  |  | 
Clc1ccc(Cl)c(-c2cccc(Cl)c2Cl)c1 [PCB 44] | 0.8 ^c μM | 0.29 | 4.20 ± 0.10 | 0.50 ± 0.03 | 0.08 | 4500 | 0.28 |  |  |  |  |  |  |  |  | 
Clc1ccc(Cl)c(-c2cc(Cl)c(Cl)cc2Cl)c1 [PCB 101] |  | 1.64 | 1.83 ± 0.04 | 0.64 ± 0.04 | 0.42 | 1980 | 0.26 | 0.86 |  |  |  |  |  |  |  | 
